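Results reflect a 48-hour exposure of cells in 96-well plates to compound at five concentrations. Abbreviation: GI50, concentration required for 50% inhibition of growth.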 Activity calls are given as the source filed them. Cut-off read from the data, not from the text of the source: active = GI50 up to about 1.1 µM and inactive = higher.
How the values were obtained:
Assay in all cases: inhibition of tumour cell growth, NCI panel, 48 h
786-0 = test system: 786-0
A498 = test system: A498
A549 = test system: A549
ACHN = test system: ACHN
BT-549 = test system: BT-549
CAKI-1 = test system: CAKI-1
CCRF-CEM = test system: CCRF-CEM
COLO 205 = test system: COLO 205
DU-145 = test system: DU-145
EKVX = test system: EKVX
HCC 2998 = test system: HCC 2998
HCT-116 = test system: HCT-116
HCT-15 = test system: HCT-15
HL-60 = test system: HL-60
HOP-62 = test system: HOP-62
HOP-92 = test system: HOP-92
HT-29 = test system: HT-29
Hs-578T = test system: Hs-578T
IGROV-1 = test system: IGROV-1
K562 = test system: K562
KM12 = test system: KM12
LOX IMVI = test system: LOX IMVI
M14 = test system: M14
MCF7 = test system: MCF7
MDA-MB-231 = test system: MDA-MB-231
MDA-MB-435 = test system: MDA-MB-435
MDA-N = test system: MDA-N
MOLT-4 = test system: MOLT-4
Malme-3M = test system: Malme-3M
NCI-H226 = test system: NCI-H226
NCI-H23 = test system: NCI-H23
NCI-H460 = test system: NCI-H460
NCI-H522 = test system: NCI-H522
NCI/ADR-RES = test system: NCI/ADR-RES
OVCAR-3 = test system: OVCAR-3
OVCAR-4 = test system: OVCAR-4
OVCAR-5 = test system: OVCAR-5
OVCAR-8 = test system: OVCAR-8
PC-3 = test system: PC-3
RPMI-8226 = test system: RPMI-8226
RXF 393 = test system: RXF 393
SF-268 = test system: SF-268
SF-295 = test system: SF-295
SF-539 = test system: SF-539
SK-MEL-28 = test system: SK-MEL-28
SK-MEL-2 = test system: SK-MEL-2
SK-MEL-5 = test system: SK-MEL-5
SK-OV-3 = test system: SK-OV-3
SN12C = test system: SN12C
SNB-19 = test system: SNB-19
SNB-75 = test system: SNB-75
SR = test system: SR
SW-620 = test system: SW-620
T47D = test system: T47D
TK-10 = test system: TK-10
U-251 = test system: U-251
UACC-257 = test system: UACC-257
UACC-62 = test system: UACC-62
UO-31 = test system: UO-31

Compound: COC(=O)c1ccc(NCC2=CC(=O)c3ccccc3C2=O)cc1
- GI50 (786-0): 19.3 µM (inactive)
- GI50 (A498): 24.2 µM (inactive)
- GI50 (A549): 22.5 µM (inactive)
- GI50 (ACHN): 13.9 µM (inactive)
- GI50 (BT-549): 20 µM (inactive)
- GI50 (CAKI-1): 11.6 µM (inactive)
- GI50 (CCRF-CEM): 2.04 µM (inactive)
- GI50 (COLO 205): 13.3 µM (inactive)
- GI50 (DU-145): 16.5 µM (inactive)
- GI50 (EKVX): 21.1 µM (inactive)
- GI50 (HCC 2998): 19.4 µM (inactive)
- GI50 (HCT-116): 17.8 µM (inactive)
- GI50 (HCT-15): 14.5 µM
- GI50 (HL-60): 3.1 µM (inactive)
- GI50 (HOP-62): 16.2 µM (inactive)
- GI50 (HOP-92): 2.77 µM (inactive)
- GI50 (HT-29): 25.7 µM (inactive)
- GI50 (Hs-578T): 28.6 µM (inactive)
- GI50 (IGROV-1): 12.2 µM (inactive)
- GI50 (K562): 3.44 µM (inactive)
- GI50 (KM12): 15.4 µM (inactive)
- GI50 (LOX IMVI): 8.18 µM (inactive)
- GI50 (M14): 17.8 µM (inactive)
- GI50 (MCF7): 18.4 µM (inactive)
- GI50 (MDA-MB-231): 2.99 µM (inactive)
- GI50 (MDA-MB-435): 12.2 µM (inactive)
- GI50 (MDA-N): 9.23 µM (inactive)
- GI50 (MOLT-4): 3.01 µM (inactive)
- GI50 (Malme-3M): 5.81 µM (inactive)
- GI50 (NCI-H226): 16.4 µM (inactive)
- GI50 (NCI-H23): 14.5 µM (inactive)
- GI50 (NCI-H460): 18.2 µM (inactive)
- GI50 (NCI-H522): 13.2 µM (inactive)
- GI50 (NCI/ADR-RES): 27.5 µM (inactive)
- GI50 (OVCAR-3): 12.9 µM (inactive)
- GI50 (OVCAR-4): 14.2 µM (inactive)
- GI50 (OVCAR-5): 21.6 µM (inactive)
- GI50 (OVCAR-8): 29.8 µM (inactive)
- GI50 (PC-3): 14.3 µM (inactive)
- GI50 (RPMI-8226): 6.32 µM (inactive)
- GI50 (RXF 393): 22 µM (inactive)
- GI50 (SF-268): 24.8 µM (inactive)
- GI50 (SF-295): 16.9 µM (inactive)
- GI50 (SF-539): 23.4 µM (inactive)
- GI50 (SK-MEL-28): 17.5 µM (inactive)
- GI50 (SK-MEL-2): 18.9 µM (inactive)
- GI50 (SK-MEL-5): 11.7 µM (inactive)
- GI50 (SK-OV-3): 16.1 µM (inactive)
- GI50 (SN12C): 21.8 µM (inactive)
- GI50 (SNB-19): 31.4 µM (inactive)
- GI50 (SNB-75): 20.7 µM (inactive)
- GI50 (SR): 14.6 µM (inactive)
- GI50 (SW-620): 22.2 µM (inactive)
- GI50 (T47D): 12.2 µM (inactive)
- GI50 (TK-10): 22.2 µM (inactive)
- GI50 (U-251): 22.9 µM (inactive)
- GI50 (UACC-257): 14.3 µM (inactive)
- GI50 (UACC-62): 13.6 µM (inactive)
- GI50 (UO-31): 16.1 µM (inactive)

Compound: COc1cc2c3cc1Oc1c(O)c(OC)cc4c1[C@H](Cc1ccc(cc1)Oc1cc(ccc1O)C[C@H]3N(C)CC2)N(C)CC4
- GI50 (786-0): 6.52 µM (inactive)
- GI50 (A498): 16.7 µM (inactive)
- GI50 (A549): 15.2 µM (inactive)
- GI50 (ACHN): 19.4 µM (inactive)
- GI50 (BT-549): 12.9 µM (inactive)
- GI50 (CAKI-1): 25.9 µM (inactive)
- GI50 (CCRF-CEM): 10.4 µM (inactive)
- GI50 (COLO 205): 13.8 µM (inactive)
- GI50 (DU-145): 15.1 µM (inactive)
- GI50 (EKVX): 16.7 µM (inactive)
- GI50 (HCC 2998): 7.05 µM (inactive)
- GI50 (HCT-116): 5.77 µM (inactive)
- GI50 (HCT-15): 9.29 µM
- GI50 (HL-60): 6.68 µM (inactive)
- GI50 (HOP-62): 16.4 µM (inactive)
- GI50 (HOP-92): 6.64 µM (inactive)
- GI50 (HT-29): 3.84 µM (inactive)
- GI50 (Hs-578T): 20 µM (inactive)
- GI50 (IGROV-1): 13.8 µM (inactive)
- GI50 (K562): 2.56 µM (inactive)
- GI50 (KM12): 9.02 µM (inactive)
- GI50 (LOX IMVI): 4.94 µM (inactive)
- GI50 (M14): 2.25 µM (inactive)
- GI50 (MCF7): 13.3 µM (inactive)
- GI50 (MDA-MB-231): 10.3 µM (inactive)
- GI50 (MDA-MB-435): 10.7 µM (inactive)
- GI50 (MDA-N): 10.7 µM (inactive)
- GI50 (MOLT-4): 8.41 µM (inactive)
- GI50 (Malme-3M): 17.3 µM (inactive)
- GI50 (NCI-H226): 29.4 µM (inactive)
- GI50 (NCI-H23): 22.4 µM (inactive)
- GI50 (NCI-H460): 8.99 µM (inactive)
- GI50 (NCI-H522): 11 µM (inactive)
- GI50 (NCI/ADR-RES): 24.5 µM (inactive)
- GI50 (OVCAR-3): 10.2 µM (inactive)
- GI50 (OVCAR-4): 16.9 µM (inactive)
- GI50 (OVCAR-5): 23.6 µM (inactive)
- GI50 (OVCAR-8): 14.9 µM (inactive)
- GI50 (PC-3): 8.51 µM (inactive)
- GI50 (RPMI-8226): 5.33 µM (inactive)
- GI50 (RXF 393): 3.63 µM (inactive)
- GI50 (SF-268): 14.4 µM (inactive)
- GI50 (SF-295): 12.4 µM (inactive)
- GI50 (SF-539): 3.23 µM (inactive)
- GI50 (SK-MEL-28): 19.2 µM (inactive)
- GI50 (SK-MEL-2): 12.3 µM (inactive)
- GI50 (SK-MEL-5): 7.33 µM (inactive)
- GI50 (SK-OV-3): 25.4 µM (inactive)
- GI50 (SN12C): 4.17 µM (inactive)
- GI50 (SNB-19): 20.9 µM (inactive)
- GI50 (SNB-75): 18.8 µM (inactive)
- GI50 (SR): 1.63 µM (inactive)
- GI50 (SW-620): 16.5 µM (inactive)
- GI50 (T47D): 17.9 µM (inactive)
- GI50 (TK-10): 13.6 µM (inactive)
- GI50 (U-251): 9.48 µM (inactive)
- GI50 (UACC-257): 15 µM (inactive)
- GI50 (UACC-62): 17.4 µM (inactive)
- GI50 (UO-31): 12.6 µM (inactive)

Source: ChEMBL document CHEMBL1201862, “PubChem BioAssay data set” (2004)
